The target in data set [1] is T1, PBD domain of human PLK2 (Homo sapiens, UniProt Q9NYY3).
T1 construct: For FP assays using PLK2 PBD (aa356-681), the same procedure was applied; GST (N, cleaved yes); made in house; host or cells: E. coli C41
T1 sequence (Q9NYY3 356-681): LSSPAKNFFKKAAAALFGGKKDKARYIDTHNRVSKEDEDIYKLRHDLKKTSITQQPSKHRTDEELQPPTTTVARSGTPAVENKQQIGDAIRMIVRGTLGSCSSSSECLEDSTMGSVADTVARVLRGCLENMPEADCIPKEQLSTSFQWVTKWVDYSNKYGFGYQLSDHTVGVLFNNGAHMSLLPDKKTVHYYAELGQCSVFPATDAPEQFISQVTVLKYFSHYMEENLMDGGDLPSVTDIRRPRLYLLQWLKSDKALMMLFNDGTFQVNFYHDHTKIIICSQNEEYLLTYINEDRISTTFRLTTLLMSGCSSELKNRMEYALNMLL
Nature of the data set: Fluorescence polarisation (FP) assay, PLK2 PBD. The data set is classed as binding. How it is done: Final concentrations of assay components used in binding assays were as follows: TAMRA-labelled consensus PLK1 PBD binding phosphopeptide, 5-TAMRA-MAGPMQS(pThreonine)PLMGAKK-acid 10nM; PLK1 PBD (aa345-603) 84nM (2.5ng/μl). Assays were carried out in PBS (pH 7.4) plus 0.03% tween. DMSO controls were run alongside all experimental compounds and % inhibition normalised to these controls. Compounds were titrated 2 fold from a top concentration of 250μM giving a maximum final concentration of DMSO in the assay of 0.25%; however the assay can tolerate DMSO up to 5%. Compound and PBD protein were incubated together at 22°C for 1 hour prior to addition of the TAMRA labelled binding phosphopeptide. The total assay volume per well was 45μl. All experiments were performed in NBS black 384-well microtiter plates (Corning). Fluorescence Polarisation (FP) was read using a BMG PheraStar plate reader with a 540/590/590nm FP module and unbound 10nm TAMRA-labelled peptide set to a FP value of 35mP.
For FP assays using PLK2 PBD (aa356-681), the same procedure was applied except that TAMRA-MAGPMQTS(pThreonine)PKNGAKK was used as the consensus binding phosphopeptide.

Data set [2] concerns murine pancreatic organoids KRAS WT p53 MUT. The experiment in a line: Viability of pancreatic organoids (CellTitre Glo 3D), KRAS WT. The conditions noted are these: Mus musculus, read-out: Mean GI50. The data set is classed as cell-based. How it is done: (§1) Organoid cultures were prepared from the pancreas of LSL-Trp53^R172H/+, Pdx-1-Cre (for Kras WT organoids) or LSL-Trp53^R172H/+, LSL-Kras^G12D/+, Pdx-1-Cre (for Kras^G12D organoids KPC3760 and KPC26684) strains ([Hingorani et al., 2005]). Pancreatic ducts were manually picked after tissue mincing and overnight enzymatic digestion with 0.012% (w/v) collagenase XI (Sigma) and 0.012% (w/v) dispase (GIBCO) in DMEM media containing 1% FBS (GIBCO), before seeding in growth-factor-reduced (GFR) Matrigel (BD) ([Boj et al., 2015]).
(§2) Pancreatic organoids were extracted and cultured as detailed above ([Boj et al., 2015]). In brief, pancreatic organoids were seeded at 600 cells per well in a 96 well plate and allowed to grow for 7 days with media replenishment on the 3rd day. Full-grown organoids were then treated with compounds for 72h and viability determined using CellTitre Glo 3D assay (Promega). For viability assays with c-MET siRNA, cells were reverse transfected in a 6 cm dish using Dharmafect 1 (GE Dharmacon) per manufacturer’s instructions. On the following day, cells were trypsinised and plated onto 96 well plates or 6 well plates. The 96 well plates were treated with a dose range of compounds or DMSO, and viability was determined via SRB colorimetric assay. Cells in the 6 well plates were collected at the end of experiment to corroborate knockdown of c-MET by Western blotting.

Data set [3] has as its system murine pancreatic organoids KRAS MUT p53 MUT. Nature of the data set: Viability of pancreatic organoids (CellTitre Glo 3D), KRAS G12D. It is filed as cell-based. Particulars: Mus musculus. How it is done: as §1, §2
Data set [4] is described as follows: Solubility in 5% DMSO. The conditions noted are these: aqueous with cosolvent or surfactant or cyclodextrin, read-out: soluble at up to. The data set is classed as physicochemical.
Data set [5] has as its system kinase catalytic domains of PLK1, PLK2, PLK3, PLK4 and 51 other protein kinases. The experiment in a line: DiscoverX KINOMEscan panel of 55 kinases (statements in words). The data set is classed as binding, human. The conditions noted are these: cut-off <35% of control. How it is done: (§3) A panel of 55 proteins (comprising 51 human kinases structurally or functionally related to the PLKs, plus the kinase catalytic domains of PLK1, PLK2, PLK3 and PLK4) were selected for testing by DiscoverX using the KINOMEscan assay platform. Compounds were supplied as 40x DMSO stocks and were tested at a final concentration of 50μM for Poloppin and 5μM for Poloppin-II. Binding interactions were reported as percentage of control where lower numbers indicate stronger binding. A cut-off of <35% was applied to report significant binding.

Data set [6] concerns the target T2, AURKC (Homo sapiens, UniProt Q9UQB9).
T2 construct: purchased DiscoverX KINOMEscan
The experiment in a line: DiscoverX KINOMEscan. It is filed as binding. The conditions noted are these: read-out: % Control. How it is done:
as §3

Data set [7] addresses T3, CDK2 (Homo sapiens, UniProt P24941).
T3 construct: purchased DiscoverX KINOMEscan
Nature of the data set: DiscoverX KINOMEscan. Particulars: read-out: % Control. It is filed as binding. How it is done: as §3

Data set [8] addresses T4, EIF2AK1 (Homo sapiens, UniProt Q9BQI3).
T4 construct: purchased DiscoverX KINOMEscan
Nature of the data set: DiscoverX KINOMEscan. It is filed as binding. The conditions noted are these: read-out: % Control. How it is done: as §3

Data set [9] addresses T5, EIF2AK2 (Homo sapiens, UniProt P19525).
T5 construct: purchased DiscoverX KINOMEscan
The experiment in a line: DiscoverX KINOMEscan. The data set is classed as binding. Particulars: read-out: % Control. How it is done:
as §3

The target of data set [10] is T6, GAK (Homo sapiens, UniProt O14976).
T6 construct: purchased DiscoverX KINOMEscan
Nature of the data set: DiscoverX KINOMEscan. It is filed as binding. Particulars: read-out: % Control. On the procedure:
as §3

Data set [11] addresses T7, NEK4 (Homo sapiens, UniProt P51957).
T7 construct: purchased DiscoverX KINOMEscan
Nature of the data set: DiscoverX KINOMEscan. Particulars: read-out: % Control. It is filed as binding. How it is done: as §3

For data set [12], the target named is T8, NEK6 (Homo sapiens, UniProt Q9HC98).
T8 construct: purchased DiscoverX KINOMEscan
The experiment in a line: DiscoverX KINOMEscan. Particulars: read-out: % Control. It is filed as binding. On the procedure: as §3

Data set [13] has as its target T9, PKMYT1 (Homo sapiens, UniProt Q99640).
T9 construct: purchased DiscoverX KINOMEscan
The experiment in a line: DiscoverX KINOMEscan. The data set is classed as binding. Particulars: read-out: % Control. On the procedure: as §3

Data set [14] concerns the target T10, PLK3 kinase catalytic domain (Homo sapiens, UniProt Q9H4B4).
T10 construct: PLK3 kinase catalytic domain; purchased DiscoverX KINOMEscan
The experiment in a line: DiscoverX KINOMEscan. The data set is classed as binding. Particulars: read-out: % Control. On the procedure:
as §3

Data set [15] has as its target T11, ROCK2 (Homo sapiens, UniProt O75116).
T11 construct: purchased DiscoverX KINOMEscan
The experiment in a line: DiscoverX KINOMEscan. The conditions noted are these: read-out: % Control. It is filed as binding. On the procedure:
as §3

The target in data set [16] is T12, TTK (Homo sapiens, UniProt P33981).
T12 construct: purchased DiscoverX KINOMEscan
Nature of the data set: DiscoverX KINOMEscan. It is filed as binding. The conditions noted are these: read-out: % Control. On the procedure:
as §3

The target in data set [17] is T13, WNK2 (Homo sapiens, UniProt Q9Y3S1).
T13 construct: purchased DiscoverX KINOMEscan
Nature of the data set: DiscoverX KINOMEscan. It is filed as binding. The conditions noted are these: read-out: % Control. On the procedure:
as §3

Data set [18] deals with T14, WNK4 (Homo sapiens, UniProt Q96J92).
T14 construct: purchased DiscoverX KINOMEscan
The experiment in a line: DiscoverX KINOMEscan. The data set is classed as binding. Particulars: read-out: % Control. How it is done: as §3

≈ marks a conversion by molar mass, not a printed value. Where “and” joins values, the source holds several entries; their conditions need not be identical. Equal entries are not always repeated. Where two headings read alike, the source gives them in different places.

A word on the IC50: it is the concentration at which inhibition is half-maximal. The GI50 is the concentration at which growth is held to half of that of the control.

T14 sequence (Q96J92 whole entry): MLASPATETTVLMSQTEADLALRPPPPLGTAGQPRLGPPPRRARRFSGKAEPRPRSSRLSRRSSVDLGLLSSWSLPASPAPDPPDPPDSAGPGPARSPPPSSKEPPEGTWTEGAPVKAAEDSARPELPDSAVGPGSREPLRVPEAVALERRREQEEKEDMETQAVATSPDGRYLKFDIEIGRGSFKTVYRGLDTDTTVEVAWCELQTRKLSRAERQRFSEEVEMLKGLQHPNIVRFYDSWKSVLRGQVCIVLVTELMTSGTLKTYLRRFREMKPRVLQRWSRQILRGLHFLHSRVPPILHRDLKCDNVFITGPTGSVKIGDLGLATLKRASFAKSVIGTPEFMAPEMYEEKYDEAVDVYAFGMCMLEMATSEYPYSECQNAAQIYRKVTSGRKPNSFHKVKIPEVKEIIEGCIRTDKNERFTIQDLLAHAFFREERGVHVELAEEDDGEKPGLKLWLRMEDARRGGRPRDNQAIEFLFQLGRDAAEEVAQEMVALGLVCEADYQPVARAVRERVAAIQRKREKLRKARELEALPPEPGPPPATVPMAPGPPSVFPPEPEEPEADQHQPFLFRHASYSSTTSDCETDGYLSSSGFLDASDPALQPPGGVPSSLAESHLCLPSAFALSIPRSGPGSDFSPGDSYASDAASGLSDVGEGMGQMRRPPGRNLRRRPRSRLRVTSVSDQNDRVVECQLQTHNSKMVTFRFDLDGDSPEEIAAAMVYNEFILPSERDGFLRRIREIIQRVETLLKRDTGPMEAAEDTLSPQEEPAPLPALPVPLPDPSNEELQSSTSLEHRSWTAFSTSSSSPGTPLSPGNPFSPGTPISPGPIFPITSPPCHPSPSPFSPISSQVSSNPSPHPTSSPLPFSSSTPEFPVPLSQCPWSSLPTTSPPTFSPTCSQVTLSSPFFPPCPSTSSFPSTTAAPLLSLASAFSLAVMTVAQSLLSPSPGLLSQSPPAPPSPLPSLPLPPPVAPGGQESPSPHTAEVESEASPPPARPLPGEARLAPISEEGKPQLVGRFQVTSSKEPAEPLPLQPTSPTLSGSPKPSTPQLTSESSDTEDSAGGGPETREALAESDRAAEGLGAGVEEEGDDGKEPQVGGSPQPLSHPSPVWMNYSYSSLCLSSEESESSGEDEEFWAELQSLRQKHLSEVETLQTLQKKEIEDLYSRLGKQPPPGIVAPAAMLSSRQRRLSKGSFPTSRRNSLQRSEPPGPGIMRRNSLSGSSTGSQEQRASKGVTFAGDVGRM
T4 sequence (Q9BQI3 whole entry): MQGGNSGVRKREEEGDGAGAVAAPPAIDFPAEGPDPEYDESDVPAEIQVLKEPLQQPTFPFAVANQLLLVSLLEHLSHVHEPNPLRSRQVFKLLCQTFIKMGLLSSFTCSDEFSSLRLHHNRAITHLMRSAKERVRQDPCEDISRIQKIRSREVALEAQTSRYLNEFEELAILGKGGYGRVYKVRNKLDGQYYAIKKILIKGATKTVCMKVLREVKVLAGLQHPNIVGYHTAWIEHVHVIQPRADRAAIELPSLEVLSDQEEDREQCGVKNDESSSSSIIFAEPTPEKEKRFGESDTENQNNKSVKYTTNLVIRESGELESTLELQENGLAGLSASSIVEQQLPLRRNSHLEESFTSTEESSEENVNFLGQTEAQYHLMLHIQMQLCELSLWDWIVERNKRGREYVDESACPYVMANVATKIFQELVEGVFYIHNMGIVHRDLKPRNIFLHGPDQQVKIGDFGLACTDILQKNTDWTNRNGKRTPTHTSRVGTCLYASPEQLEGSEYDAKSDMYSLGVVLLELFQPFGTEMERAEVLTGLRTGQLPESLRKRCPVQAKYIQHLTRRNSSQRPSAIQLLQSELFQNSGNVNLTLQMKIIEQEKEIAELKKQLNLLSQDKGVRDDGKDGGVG
T11 sequence (O75116 whole entry): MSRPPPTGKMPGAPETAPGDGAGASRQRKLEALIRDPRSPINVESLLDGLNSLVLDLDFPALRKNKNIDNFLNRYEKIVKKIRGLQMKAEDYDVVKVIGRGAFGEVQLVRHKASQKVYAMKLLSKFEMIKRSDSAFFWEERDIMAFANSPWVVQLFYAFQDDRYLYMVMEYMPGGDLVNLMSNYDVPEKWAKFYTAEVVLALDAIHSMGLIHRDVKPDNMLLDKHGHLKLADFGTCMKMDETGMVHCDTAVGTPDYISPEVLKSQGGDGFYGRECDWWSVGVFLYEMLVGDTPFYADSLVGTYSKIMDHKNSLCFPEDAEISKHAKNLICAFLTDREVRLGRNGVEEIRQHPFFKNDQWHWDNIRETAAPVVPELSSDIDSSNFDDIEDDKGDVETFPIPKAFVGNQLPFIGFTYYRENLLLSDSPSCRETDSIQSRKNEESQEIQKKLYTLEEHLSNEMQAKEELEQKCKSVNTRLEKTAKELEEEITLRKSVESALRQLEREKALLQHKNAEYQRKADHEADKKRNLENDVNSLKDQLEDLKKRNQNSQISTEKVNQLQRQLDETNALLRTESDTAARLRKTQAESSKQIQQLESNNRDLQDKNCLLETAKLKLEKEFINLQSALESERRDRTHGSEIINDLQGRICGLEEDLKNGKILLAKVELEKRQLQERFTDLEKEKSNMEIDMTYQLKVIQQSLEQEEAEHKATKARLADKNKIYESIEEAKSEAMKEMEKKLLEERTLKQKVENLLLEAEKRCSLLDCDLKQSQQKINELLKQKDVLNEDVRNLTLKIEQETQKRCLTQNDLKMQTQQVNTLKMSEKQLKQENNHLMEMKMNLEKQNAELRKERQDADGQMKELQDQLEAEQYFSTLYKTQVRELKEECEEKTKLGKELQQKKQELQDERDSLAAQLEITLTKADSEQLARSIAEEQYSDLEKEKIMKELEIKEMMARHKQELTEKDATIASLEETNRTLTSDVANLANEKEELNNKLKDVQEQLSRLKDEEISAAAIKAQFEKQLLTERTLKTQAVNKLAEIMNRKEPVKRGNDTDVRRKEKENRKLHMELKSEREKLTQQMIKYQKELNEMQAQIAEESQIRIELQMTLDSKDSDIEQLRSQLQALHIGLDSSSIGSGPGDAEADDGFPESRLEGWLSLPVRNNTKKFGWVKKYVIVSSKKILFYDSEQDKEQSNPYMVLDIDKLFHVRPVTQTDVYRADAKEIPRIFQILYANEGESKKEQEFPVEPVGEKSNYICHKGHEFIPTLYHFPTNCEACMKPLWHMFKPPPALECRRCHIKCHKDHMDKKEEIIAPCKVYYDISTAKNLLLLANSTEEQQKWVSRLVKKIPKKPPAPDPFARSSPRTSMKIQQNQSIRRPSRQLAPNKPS
T8 sequence (Q9HC98 whole entry): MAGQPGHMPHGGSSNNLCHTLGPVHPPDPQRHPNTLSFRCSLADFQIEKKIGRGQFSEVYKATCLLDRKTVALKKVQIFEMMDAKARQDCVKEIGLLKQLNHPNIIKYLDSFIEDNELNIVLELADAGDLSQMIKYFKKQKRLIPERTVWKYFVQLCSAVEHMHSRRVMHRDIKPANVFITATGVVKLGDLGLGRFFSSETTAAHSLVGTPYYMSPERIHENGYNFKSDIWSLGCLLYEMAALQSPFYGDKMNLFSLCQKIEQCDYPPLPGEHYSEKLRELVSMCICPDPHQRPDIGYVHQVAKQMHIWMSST
T12 sequence (P33981 whole entry): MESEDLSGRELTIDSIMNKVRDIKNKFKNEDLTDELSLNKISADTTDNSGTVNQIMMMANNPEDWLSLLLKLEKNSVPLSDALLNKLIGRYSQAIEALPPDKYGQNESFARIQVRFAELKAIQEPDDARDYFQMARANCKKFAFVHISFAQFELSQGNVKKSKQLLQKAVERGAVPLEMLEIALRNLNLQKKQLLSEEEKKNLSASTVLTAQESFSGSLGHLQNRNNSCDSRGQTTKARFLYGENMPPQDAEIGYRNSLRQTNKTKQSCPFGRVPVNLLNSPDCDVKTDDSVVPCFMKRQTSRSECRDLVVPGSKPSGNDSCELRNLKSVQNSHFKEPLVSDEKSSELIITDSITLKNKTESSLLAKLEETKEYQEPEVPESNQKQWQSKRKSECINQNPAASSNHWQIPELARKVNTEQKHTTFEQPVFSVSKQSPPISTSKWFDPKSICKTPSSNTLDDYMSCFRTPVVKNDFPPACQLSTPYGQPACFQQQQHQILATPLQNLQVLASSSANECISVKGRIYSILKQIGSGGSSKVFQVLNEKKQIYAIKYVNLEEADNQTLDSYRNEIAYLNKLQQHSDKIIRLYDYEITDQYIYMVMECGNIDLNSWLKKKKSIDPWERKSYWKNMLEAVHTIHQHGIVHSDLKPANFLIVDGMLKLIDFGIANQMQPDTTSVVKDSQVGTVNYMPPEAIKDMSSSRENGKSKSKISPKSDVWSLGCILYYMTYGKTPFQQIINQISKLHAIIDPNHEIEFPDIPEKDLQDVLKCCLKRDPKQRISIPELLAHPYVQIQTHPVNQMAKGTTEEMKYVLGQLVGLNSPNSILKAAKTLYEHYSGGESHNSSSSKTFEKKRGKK
T5 sequence (P19525 whole entry): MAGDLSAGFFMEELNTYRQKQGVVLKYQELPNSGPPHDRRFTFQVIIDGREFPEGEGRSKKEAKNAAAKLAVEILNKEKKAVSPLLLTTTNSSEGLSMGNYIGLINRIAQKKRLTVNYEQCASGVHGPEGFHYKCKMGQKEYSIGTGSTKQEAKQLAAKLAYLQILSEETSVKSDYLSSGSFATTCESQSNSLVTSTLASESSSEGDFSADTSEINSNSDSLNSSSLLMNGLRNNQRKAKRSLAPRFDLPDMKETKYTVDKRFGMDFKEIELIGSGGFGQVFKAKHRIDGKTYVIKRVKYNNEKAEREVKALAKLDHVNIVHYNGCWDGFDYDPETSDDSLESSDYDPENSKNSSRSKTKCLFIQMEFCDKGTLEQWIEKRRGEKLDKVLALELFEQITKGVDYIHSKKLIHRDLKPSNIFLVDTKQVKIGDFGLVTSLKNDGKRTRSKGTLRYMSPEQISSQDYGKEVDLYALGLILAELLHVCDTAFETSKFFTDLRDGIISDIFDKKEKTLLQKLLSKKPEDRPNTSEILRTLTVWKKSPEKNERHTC

Turning to `CN(C)CCNC(=O)c1ccc(-c2ccc(-c3ccc(Cl)cc3)n2-c2ccccc2C(F)(F)F)cc1` [Poloppin-II], in data set [1] (read-out: IC50, binding of TAMRA-labelled phosphopeptide to PLK2 PBD), the IC50 was 105 µM. For the same molecule, the GI50 is 102 µM in data set [2] (organoids KRAS WT p53 MUT, n=2) and 22.9 µM in data set [3] (organoids KRAS MUT p53 MUT #2, n=2, read-out: Mean GI50). Also, in data set [4], the solubility was roughly 100 µM (≈ 51.2 µg/mL). In addition, the “binding to the kinase catalytic domains of PLK1–4, or to 51 other related kinases” value in [5] (Poloppin-II at 5 μM) is given as “no binding”. In addition, the remaining binding at 5 µM was determined as 85% in [6] (AURKC, Poloppin-II 5µM, hit <35%); 89% in data set [7] (CDK2, Poloppin-II 5µM, hit <35%); 98% in data set [8] (EIF2AK1, Poloppin-II 5µM, hit <35%); 90% in data set [9] (EIF2AK2, Poloppin-II 5µM, hit <35%); 100% in data set [10] (GAK, Poloppin-II 5µM, hit <35%); 100% in data set [11] (NEK4, Poloppin-II 5µM, hit <35%). The remaining binding at 5 µM in data set [12] (NEK6, Poloppin-II 5µM, hit <35%) amounted to 99%; in [13] (PKMYT1, Poloppin-II 5µM, hit <35%), 100%; in data set [14] (PLK3, Poloppin-II 5µM, hit <35%) it was 74%; in [15] (ROCK2, Poloppin-II 5µM, hit <35%) it was 100%; in [16] (TTK, Poloppin-II 5µM, hit <35%) it was 83%; in [17] (WNK2, Poloppin-II 5µM, hit <35%), 100%. Moreover, the remaining binding at 5 µM in data set [18] (WNK4, Poloppin-II 5µM, hit <35%) turned out to be 91%.

In the case of `O=C(O)CCc1ccc(-c2ccc(Br)cc2)n1-c1ccccc1C(F)(F)F` [Poloppin], the “selectivity for PLK1-PBD over PLK2-PBD” value in [1] is roughly 3 fold. In [1] (IC50, binding of TAMRA-labelled phosphopeptide to PLK2 PBD), the IC50 was 88.3 µM and 88 µM. The GI50 stood at 119 µM in [2]; 22.9 µM in data set [3] (read-out: Mean GI50, organoids KRAS MUT p53 MUT #1, n=2); 28.4 µM in data set [3] (read-out: Mean GI50, organoids KRAS MUT p53 MUT #2, n=2). Further, in data set [4], the solubility was no more than 1000 µM. For the same molecule, the “binding to 51 other protein kinases” value in [5] (Poloppin at 50μM) was “No significant binding”. The “binding to the kinase catalytic domains of PLK1, PLK2, PLK3, PLK4” value in data set [5] (Poloppin at 50μM) is recorded as “does not bind”. Also, the remaining binding at 50 µM came out at 81% in data set [6]; 84% in [7]; 97% in data set [8]; 69% in [9]; 100% in data set [10]; 100% in [11]. Besides, the remaining binding at 50 µM was 96% in data set [12]; 98% in [13]; 83% in [14]; 100% in [15]; 85% in data set [16]; 100% in [17]. For the same molecule, the remaining binding at 50 µM in [18] turned out to be 100%.

Values taken from PMC5563081, “Modulating Protein-Protein Interactions of the Mitotic Polo-like Kinases to Target Mutant KRAS” (Cell Chemical Biology, 2017).
